{"source": "patent US20260234165A1", "about": "“MACROCYCLIC COMPOUNDS, PREPARATION METHOD THEREFOR, AND USE THEREOF” (GENFLEET THERAPEUTICS (SHANGHAI) INC., priority 2004, published 2026)", "format_in_all_cases": "cell-based, human", "key": {"[1]": {"tested_on": "AsPC-1 cells (KRAS G12D mutation)", "assay": "3D cell proliferation assay (CellTiter Glo-3D), AsPC-1", "conditions": "medium with 2% FBS, read-out: AsPC-1 AP IC50", "from_the_text": "(§1) MIA PaCa-2 cells were purchased from ATCC, Cat. No. CRL-1420; AsPC-1 cells were purchased from ATCC, Cat. No. CRL-1682; NCI-H441 cells were purchased from ATCC, Cat. No. HTB-174: NCI-H1975 cells were purchased from ATCC. Cat. No. CRL-5908; DMEM medium was purchased from Gibco, Cat. No. 11995-065: RPMI-1040 medium was purchased from Gibco. Cat. No. H 18754093; FBS was purchased from Gibco, Cat. No. 10099-141C. penicillin, streptomycin double-antibiotic solution (PS) was purchased from Gibco, Cat. No. 15140-122; Horse serum was purchased from Gibco. Cat. No. 16050130: trypsin (containing EDTA) was purchased from Gibco, Cat. No. 25200-072; DMSO was purchased from VWRAMRESCO, Cat. No. 0231-500ML; 384-well cell culture plates were purchased from Corning, Cat. No. 3830; white-bottomed, opaque 384-well assay plates were purchased from Corning, Cat. No. 3570. CellTiter Glo-3D) kit was purchased from Promega. Cat. No. G9683; cell counter was purchased from CHEMOMETEC, model: NC-200: microplate reader was purchased from PerkinElmer, model: EnVision.\n(§2) MIA PaCa-2, a human pancreatic cancer cell strain endogenously containing a KRAS^G12C mutation, was cultured in a complete medium containing DMEM+10% FBS+2.5% Horse serum+1% PS. AsPC-1, a human pancreatic cancer cell strain endogenously containing a […] mutation, was cultured in a complete medium containing RPMI-1640+10% FBS+1% PS. NCI-H441 cells, a human lung cancer cell strain endogenously containing a […] mutation, were cultured in a complete medium containing RPMI-1640+10% FBS+1% PS. NCI-H1975, a KRAS wild-type human lung cancer cell strain whose cell proliferation depends on KRAS activity, was cultured in a complete medium containing RPMI-1640+10% FBS+1% PS.\n(§3) The cells were digested with trypsin (containing EDTA), collected in their respective low-serum complete media containing 2% FBS (for MIA Paca-2 cell culture: DMEM+2% FBS+0.5% Horse serum+1% PS), and counted. After the cell density was adjusted as required, 200 MIA PaCa-2 cells, 800 AsPC-1 cells, 800 NCI-H441 cells, or 400 NCI-H1975 cells per well were seeded into a 384-well cell culture plate, with the volume of the medium in each well being 45 μL. The cell culture plate was incubated in an incubator at 37° C. with 5% CO2, overnight. A series of 3.16-fold gradient dilutions of a 1000× compound stock solution were prepared with DMSO, and then diluted 100-fold with the complete medium containing 2% FBS described above to give 10- compound stock solutions. On the day after cell seeding, 5 μL of the 10- compound stock solution was added to each cell culture well. As a result, the final concentration of the compound in the cell culture well became 1×, and the DMSO content in the well was 0.1%. In addition to the compound-treated wells described above, cell-containing DMSO control wells (with 5 μL of the complete medium containing 1% DMSO added to each well) and cell-free medium control wells (containing 50 μL of the complete medium with 2% FBS) were also set. The culture plate was incubated in an incubator at 37° C. with 5% CO2 for another 5 days, and then 30 μL of CellTiter-Glo working solution was added to each well. The mixture was well mixed, incubated for 30 min, left to stand at room temperature for 30 min, and then transferred to a white-bottomed, opaque 384-well assay plate at 40 μL/well. The chemiluminescence values (RLU) were measured using a microplate reader, and the cell proliferation inhibition rate for each well was calculated: IR (%)=(RLUDMSO—RLUcompound)/(RLUDMSO−RLUblank)×100%, where RLUDMSO is the average RLU signal value from the DMSO control well samples, RLUblank is the average RLU signal value from the medium control well samples, and RLUcompound is the RLU signal value from the compound-treated well samples. […]"}, "[2]": {"tested_on": "NCI-H441 cells", "assay": "3D cell proliferation assay (CellTiter Glo-3D), NCI-H441", "conditions": "medium with 2% FBS, read-out: H441 AP IC50", "from_the_text": "as §1, §2, §3"}, "[3]": {"tested_on": "p-ERK in NCI-H441 cells (KRAS G12V mutation)", "assay": "Cell p-ERK assay (HTRF) in NCI-H441 cells", "conditions": "NCI-H441 cells, 3 h compound incubation, HTRF p-ERK T202/Y204, read-out: H441 p-ERK IC50", "outline": "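IC50 values derive from four-parameter fitting of p-ERK (T202/Y204) HTRF inhibition, normalized to DMSO and blank controls. The lysates came from cells exposed for 3 h to serial 3.16-fold compound dilutions at 0.1% DMSO, after overnight plating at 10000 AsPC-1 or 20000 NCI-H441 cells per well.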"}, "[4]": {"tested_on": "p-ERK in AsPC-1 cells (KRAS G12D mutation)", "assay": "Cell p-ERK assay (HTRF) in AsPC-1 cells", "conditions": "AsPC-1 cells, 3 h compound incubation, HTRF p-ERK T202/Y204, read-out: AsPC-1 p-ERK IC50", "experimental": "AsPC-1 cells were purchased from ATCC, Cat. No. CRL-1682: NCI-H441 cells were purchased from ATCC, Cat. No. HTB-174: RPMI-1640 medium was purchased from Gibco, Cat. No. I1875-093: FBS was purchased from Gibco, Cat. No. 10099-141C: penicillin/streptomycin double-antibiotic solution (PS) was purchased from Gibco, Cat. No. 15140-122: trypsin (containing EDTA) was purchased from Gibco, Cat. No. 25200-072; DMSO was purchased from VWRAMRESCO, Cat. No. 0231-500ML; 96-well cell culture plates were purchased from Corning, Cat. No. 3599: white-bottomed, opaque 96-well plates were purchased from Cisbio, Cat. No. 66PL96025; Advance ERK phospho-T202/Y204 kit was purchased from Cisbio, Cat. No. 64AERPEH; cell counter was purchased from CHEMOMETEC, model: NC-200; microplate reader was purchased from PerkinElmer, model: EnVision.\nAsPC-1, a human pancreatic cancer cell strain endogenously containing a KRAS^G12D mutation, was cultured in a complete medium containing RPMI-1640+10% FBS+1% PS. NCI-H441, a human non-small cell lung cancer cell strain endogenously containing a KRAS^G12V mutation, was cultured in a complete medium containing RPMI-1640+10% FBS+1% PS.\nThe cells were digested with trypsin (containing EDTA), collected in their corresponding complete media, and counted. The density of the cell suspensions was adjusted with their corresponding complete media, and 10000 AsPC-1 cells or 20000 NCI-H441 cells per well were seeded into a 96-well cell culture plate, with the volume of the medium in each well being 80 μL.\nThe cell culture plate was incubated in an incubator at 37° C. with 5% CO2 overnight. A series of 3.16-fold gradient dilutions of a 1000- compound stock solution were prepared with DMSO, and then diluted 200-fold with the complete medium described above to give 5′ compound stock solutions. On the day after cell seeding, 20 μL of the 5× compound stock solution was added to each cell culture well. As a result, the final concentration of the compound in the cell culture well became 1×, and the DMSO content in the well was 0.1%. In addition to the compound-treated wells described above, cell-containing DMSO control wells were also set. A complete medium containing 0.5% DMSO was added at 20 μL/well. After the mixture was well mixed, the culture plate was incubated in the incubator at 37° C. with 5% CO2 for another 3 h. The medium was then removed from the culture wells, and 50 μL of cell lysis buffer (from Advance ERK phospho-T202,Y204 kit) was added to each well. The mixture was well mixed and incubated for 30 min. Then, 16 μL of the mixture was transferred to a white-bottomed, opaque 96-well assay plate, and separately, 16 μL of cell lysis buffer was added to additional wells (serving as blank wells) in the assay plate. After the transfer was completed, 4 μL of p-ERK HTRF antibody mixture (from Advance ERK phospho-T202/Y204 kit) was added to each well of the assay plate, followed by a 4-hour incubation. The HTRF signal values (RLU) were then measured using a microplate reader, and the inhibition rate of the compound against p-ERK levels was calculated as follows: IR (%)=(RLUDMSO−RLUcompound)/(RLUDMSO−RLUblank)×100%, where RLUDMSO is the average HTRF signal value from the DMSO control well samples, RLUblank is the average HTRF signal value from the blank well samples, and RLUcompound is the HTRF signal value from the compound-treated well samples. Using an XLfit software, the IR (%) values were plotted against the logarithm of the compound concentrations, and the dose-response curves were fitted using the four-parameter method to calculate the IC50 values."}, "[5]": {"conditions": "3D cell proliferation (CellTiter Glo-3D)"}, "[6]": {"conditions": "Homo sapiens, NCI-H441, 3D cell proliferation (CellTiter Glo-3D)"}}, "note": "Counter-ions that a name gives are not always drawn. Like-named read-outs stand apart in the source and are kept apart here.", "data": [{"molecule": "CCn1c(-c2cc(N3CCN(C)CC3)cnc2[C@H](C)OC)c2c3cc(ccc31)-c1csc(n1)C[C@H](Nc1ccccn1)C(=O)N1CCC[C@H](N1)C(=O)OCC(C)(C)C2", "note": "(atropisomer, axis not shown; (Ra)) [Compound Z69, (6^3S,Z)-1^1-ethyl-(Ra)-1^2-(2-((S)-1-methoxyethyl)-5-(4-methylpiperazin-1-yl)pyridin-3-yl)-10,10-dimethyl-4-(pyridin-2-ylamino)-6^1,6^2,6^3,6^4,6^5,6^6-hexahydro-1^1H-8-oxa-2(4,2)-thiazola-1(5,3)-indola-6(1,3)-pyridazinacycloundecaphane-5,7-dione]", "values": [{"measurement": "IC50", "setting": "[1]; [5]", "result": 347, "unit": "nM"}, {"measurement": "IC50", "setting": "[2]; [5]", "result": 399, "unit": "nM"}]}, {"molecule": "CCn1c(-c2cc(N3CCN(C)CC3)cnc2[C@H](C)OC)c2c3cc(ccc31)-c1csc(n1)C[C@H](NC1CCN(C)C1=O)C(=O)N1CCC[C@H](N1)C(=O)OCC(C)(C)C2", "note": "(atropisomer, axis not shown; (Ra)) [Compound Z70, (6^3S,4S,Z)-1^1-ethyl-(Ra)-1^2-(2-((S)-1-methoxyethyl)-5-(4-methylpiperazin-1-yl)pyridin-3-yl)-10,10-dimethyl-4-((1-methyl-2-oxopyrrolidin-3-yl)amino)-6^1,6^2,6^3,6^4,6^5,6^6-hexahydro-1^1H-8-oxa-2(4,2)-thiazola-1(5,3)-indola-6(1,3)-pyridazinacycloundecaphane-5,7-dione formate]", "values": [{"measurement": "IC50", "setting": "[1]; Homo sapiens, ASPC1, 3D cell proliferation (CellTiter Glo-3D)", "result": 416, "unit": "nM"}, {"measurement": "IC50", "setting": "[2]; [6]", "result": 344, "unit": "nM"}]}, {"molecule": "CCn1c(-c2cc(N3CCN(C)CC3)cnc2[C@H](C)OC)c2c3cc(ccc31)-c1csc(n1)C[C@H](Nc1cccnn1)C(=O)N1CCC[C@H](N1)C(=O)OCC(C)(C)C2", "note": "(atropisomer, axis not shown; (Ra)) [Compound Z457, (6^3S,4S,Z)-1^1-ethyl-(Ra)-1^2-(2-((S)-1-methoxyethyl)-5-(4-methylpiperazin-1-yl)pyridin-3-yl)-10,10-dimethyl-4-(pyridazin-3-ylamino)-6^1,6^2,6^3,6^4,6^5,6^6-hexahydro-1^1H-8-oxa-2(4,2)-thiazola-1(5,3)-indola-6(1,3)-pyridazinacycloundecaphane-5,7-dione]", "values": [{"measurement": "IC50", "setting": "[3]; Homo sapiens, NCI-H441, 3 h", "result": 26.1, "unit": "nM"}, {"measurement": "IC50", "setting": "[4]; Homo sapiens, ASPC1, 3 h", "result": 92, "unit": "nM"}, {"measurement": "IC50", "setting": "[2]; [6]", "result": 27.6, "unit": "nM"}]}, {"molecule": "CCn1c(-c2cc(N3CCN4CC5(CC5)OC[C@@H]4C3)cnc2[C@H](C)OC)c2c3cc(ccc31)-c1csc(n1)C[C@H](NC(=O)[C@H]1[C@H](C)[C@@H]1C)C(=O)N1CCC[C@H](N1)C(=O)OCC1(CCC1)C2", "note": "[Compound Z467, (1r,2R,3S)—N-((3′S,4′S,Z)-1′-ethyl-2′-(2-((S)-1-methoxyethyl)-5-((S)-tetrabydro-4H-spiro[cyclopropane-1,3′-pyrazino[2,1-c][1,4]oxazin]-8′(1′H)-yl)pyridin-3-yl)-5′,7′-dioxospiro[cyclobutane-1,10′-8-oxa-2(4,2)-thiazola-1(5,3)-indola-6(1,3)-pyridazinacycloundecaphan]-4′-yl)-2,3-dimethylcyclopropane-1-carboxamide]", "values": [{"measurement": "IC50", "setting": "[3]; Homo sapiens, NCI-H441, 3 h", "result": 28.2, "unit": "nM"}, {"measurement": "IC50", "setting": "[4]; Homo sapiens, ASPC1, 3 h", "result": 69, "unit": "nM"}, {"measurement": "IC50", "setting": "[2]; [6]", "result": 58.4, "unit": "nM"}]}, {"molecule": "(2R)—N-(5-((6^3S,4S,Z)-4-((1r, 2R,3S)-2,3-dimethylcyclopropane-1-carboxamido)-1^1-ethyl-10,10-dimethyl-5,7-dioxo-6^1,6^2,6^3,6^4,6^5,6^6-hexahydro-1^1H-8-oxa-2(4,2)-thiazola-1(5,3)-indola-6(1,3)-pyridazinacycloundecaphane-2-yl)-6-((S)-1-methoxyethyl)pyridin-3-yl)-N,1-dimethylazepane-2-carboxamide [Compound Z355]", "values": [{"measurement": "IC50", "setting": "[3]", "result": 45.7, "unit": "nM"}, {"measurement": "IC50", "setting": "[4]", "result": 109, "unit": "nM"}, {"measurement": "IC50", "setting": "[2]; [5]", "result": 54.7, "unit": "nM"}]}]}
